Experimental data taken from PubChem BioAssay AID248 (DTP/NCI, 2004).
Inconclusive results and toxic doses are left out. Rule as the data show it: active = T/C of 150% or more; inactive = T/C below 125%.

Test system: L1210 leukemia ip in BDF1 mice, survival T/C
Test: NCI In Vivo Anticancer Drug Screen. Data for tumor model L1210 Leukemia (intraperitoneal) in B6D2F1 (BDF1) mice
Details: endpoint: mean survival time, higher = longer survival
Outline: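 Antitumor effect is assessed in tumor-bearing animals. Survival in the compound arm is compared with a vehicle-dosed control arm and expressed as their quotient.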

[1] = dose: 100.0 mg/kg/injection, schedule: Q04DX003 (ip), vehicle: saline with Tween-80
[2] = dose: 100.0 mg/kg/injection, schedule: Q01DX009 (ip), vehicle: Klucel (hydroxypropylcellulose) (HPC)
[3] = dose: 100.0 mg/kg/injection, schedule: Q04DX003 (ip), vehicle: Klucel (hydroxypropylcellulose) (HPC)
[4] = dose: 200.0 mg/kg/injection, schedule: Q01DX009 (ip), vehicle: Klucel (hydroxypropylcellulose) (HPC)
[5] = dose: 200.0 mg/kg/injection, schedule: Q04DX003 (ip), vehicle: Klucel (hydroxypropylcellulose) (HPC)
[6] = dose: 400.0 mg/kg/injection, schedule: Q01DX009 (ip), vehicle: Klucel (hydroxypropylcellulose) (HPC)
[7] = dose: 400.0 mg/kg/injection, schedule: Q04DX003 (ip), vehicle: Klucel (hydroxypropylcellulose) (HPC)
[8] = dose: 50.0 mg/kg/injection, schedule: Q01DX009 (ip), vehicle: saline with Tween-80
[9] = dose: 100.0 mg/kg/injection, schedule: Q01DX009 (ip), vehicle: saline with Tween-80
[10] = dose: 200.0 mg/kg/injection, schedule: Q01DX009 (ip), vehicle: saline with Tween-80
[11] = dose: 100.0 mg/kg/injection, schedule: Q01DX001 (ip), vehicle: saline
[12] = dose: 200.0 mg/kg/injection, schedule: Q01DX001 (ip), vehicle: saline
[13] = dose: 400.0 mg/kg/injection, schedule: Q01DX001 (ip), vehicle: saline
[14] = dose: 200.0 mg/kg/injection, schedule: Q04DX003 (ip), vehicle: saline with Tween-80
[15] = dose: 400.0 mg/kg/injection, schedule: Q04DX003 (ip), vehicle: saline with Tween-80
[16] = dose: 100.0 mg/kg/injection, schedule: Q04DX003 (ip), vehicle: saline
[17] = dose: 200.0 mg/kg/injection, schedule: Q04DX003 (ip), vehicle: saline
[18] = dose: 400.0 mg/kg/injection, schedule: Q01DX009 (ip), vehicle: saline with Tween-80

Measured: T/C

COc1cccc(C2NC(=O)CCC2[N+](=O)[O-])c1OC (configuration not stated)
inactive: dose: 100.0 mg/kg/injection, schedule: Q04DX002 (ip), vehicle: saline with Tween-80 105 % of control | dose: 200.0 mg/kg/injection, schedule: Q04DX002 (ip), vehicle: saline with Tween-80 102 % of control | dose: 400.0 mg/kg/injection, schedule: Q04DX002 (ip), vehicle: saline with Tween-80 94 % of control

COc1ccccc1-n1c(=O)c(N=Nc2ccccc2)c(O)n(-c2ccccc2Cl)c1=S
inactive: dose: 50.0 mg/kg/injection, schedule: Q04DX003 (ip), vehicle: saline with Tween-80 94 % of control | [1] 94 % of control

CCOC(=O)NC(C)(C)CC(C)(C)C
inactive: [2] 101 % of control | [3] 108 % of control | [4] 98 % of control | [5] 94 % of control | [6] 103 % of control | [7] 97 % of control

Cc1cc(O)c(C=O)c(C)c1O
inactive: [2] 110 % of control | [4] 117 % of control

Clc1cc(Cl)c(SSc2cc(Cl)c(Cl)cc2Cl)cc1Cl
inactive: [8] 102 % of control | [9] 98 % of control | [10] 98 % of control

COc1cc(CC(=O)N(C)C)c([N+](=O)[O-])cc1OC
inactive: [11] 87 % of control | [12] 93 % of control | [13] 93 % of control

Cc1cc(C)c(NS(=O)(=O)c2ccc([N+](=O)[O-])cc2)c(C)c1
inactive: [1] 89 % of control | [14] 93 % of control | [15] 86 % of control

O=C(O)CCNC(=S)Nc1ccc(S(=O)(=O)c2ccc(NC(=S)NCCC(=O)O)cc2)cc1
inactive: [11] 104 % of control | [12] 98 % of control | [13] 102 % of control

CCc1nc(=S)c2ncn(CC)c2[nH]1
inactive: [1] 106 % of control | [14] 96 % of control | [15] 90 % of control

C(=C\c1nc2ccccc2s1)/c1ccccc1
inactive: [16] 103 % of control | [17] 93 % of control | dose: 400.0 mg/kg/injection, schedule: Q04DX003 (ip), vehicle: saline 104 % of control

CN(C)c1ccccc1C(=O)N/N=C\c1ccc(Cl)cc1
inactive: dose: 100.0 mg/kg/injection, schedule: Q04DX002 (ip), vehicle: gum acacia 96 % of control | dose: 200.0 mg/kg/injection, schedule: Q04DX002 (ip), vehicle: gum acacia 107 % of control | dose: 400.0 mg/kg/injection, schedule: Q04DX002 (ip), vehicle: gum acacia 100 % of control

O=C1C2ON=C(c3ccccc3)C2C(=O)N1OS(=O)(=O)c1ccccc1 (configuration not stated)
inactive: [9] 98 % of control | [1] 103 % of control | [10] 92 % of control | [14] 102 % of control | [18] 88 % of control | [15] 90 % of control

C=CC[Se]c1ncnc2c1c(C#N)cn2C1OC(CO)C(O)C1O (configuration not stated)
inactive: dose: 6.25 mg/kg/injection, schedule: Q01DX009 (ip), vehicle: saline 103 % of control | dose: 12.5 mg/kg/injection, schedule: Q01DX009 (ip), vehicle: saline 107 % of control | dose: 25.0 mg/kg/injection, schedule: Q01DX009 (ip), vehicle: saline 92 % of control

C[CH2][Sn]([CH2]C)([CH2]C)[O]c1ccccc1
inactive: dose: 1.56 mg/kg/injection, schedule: Q01DX009 (ip), vehicle: saline with Tween-80 97 % of control | dose: 3.12 mg/kg/injection, schedule: Q01DX009 (ip), vehicle: saline with Tween-80 108 % of control

CC(=O)N(c1ccccn1)c1ccccn1
inactive: [11] 106 % of control | [16] 97 % of control | [12] 104 % of control | [17] 105 % of control

CC(=O)N1C=Cc2ccccc2C1C1c2ccccc2C=CN1C(C)=O (configuration not stated)
inactive: [3] 98 % of control | [5] 96 % of control | [7] 93 % of control

Cc1cc([N+](=O)[O-])cc(Cl)n1
inactive: dose: 100.0 mg/kg/injection, schedule: Q01DX001 (ip), vehicle: Klucel (hydroxypropylcellulose) (HPC) 97 % of control | dose: 200.0 mg/kg/injection, schedule: Q01DX001 (ip), vehicle: Klucel (hydroxypropylcellulose) (HPC) 102 % of control | dose: 400.0 mg/kg/injection, schedule: Q01DX001 (ip), vehicle: Klucel (hydroxypropylcellulose) (HPC) 100 % of control

CCC(C1CCC(O)CC1)C(CC)C1CCC(c2ccc(=O)oc2)C1 (configuration not stated)
inactive: dose: 25.0 mg/kg/injection, schedule: Q04DX003 (ip), vehicle: saline 100 % of control | dose: 50.0 mg/kg/injection, schedule: Q04DX003 (ip), vehicle: saline 103 % of control | [16] 103 % of control

CCOC(=O)c1ccc(=O)n(C(C)C)c1
inactive: [2] 104 % of control | [4] 98 % of control | [6] 102 % of control

CC(=O)Nc1ccc(Cc2ccc(NC(C)=O)cc2[N+](=O)[O-])c([N+](=O)[O-])c1
inactive: dose: 100.0 mg/kg/injection, schedule: Q01DX001 (ip), vehicle: carboxymethylcellulose (CMC) 105 % of control | dose: 200.0 mg/kg/injection, schedule: Q01DX001 (ip), vehicle: carboxymethylcellulose (CMC) 100 % of control | dose: 400.0 mg/kg/injection, schedule: Q01DX001 (ip), vehicle: carboxymethylcellulose (CMC) 93 % of control

Cc1ccc(CC2NC(=O)NC2=O)cc1 (configuration not stated)
inactive: dose: 25.0 mg/kg/injection, schedule: Q01DX009 (ip), vehicle: saline with Tween-80 102 % of control | [8] 96 % of control | [9] 104 % of control | [10] 96 % of control | [18] 94 % of control

O=P(Oc1ccccc1)(Oc1ccccc1)C(Nc1ccccc1)c1cccnc1 (configuration not stated)
inactive: [1] 89 % of control | [14] 103 % of control

COC(=O)C1(C)CCCC2(C)c3cc(O)c(C(C)C)cc3CCC12 (configuration not stated)
inactive: dose: 100.0 mg/kg/injection, schedule: Q01DX001 (ip), vehicle: acetone 88 % of control | dose: 200.0 mg/kg/injection, schedule: Q01DX001 (ip), vehicle: acetone 90 % of control | dose: 400.0 mg/kg/injection, schedule: Q01DX001 (ip), vehicle: acetone 93 % of control

O=C1CCCCCC1c1ccccc1 (configuration not stated)
inactive: [1] 98 % of control | [14] 96 % of control | [15] 106 % of control

O=C(Nc1ccc(Cl)c(Cl)c1)Nc1cccc2nsnc12
inactive: [2] 92 % of control | [4] 92 % of control | [6] 92 % of control

COc1ccc2nc3ccccc3c(NCCNCCO)c2c1
inactive: dose: 5.0 mg/kg/injection, schedule: Q01DX001 (ip), vehicle: saline 97 % of control | dose: 6.0 mg/kg/injection, schedule: Q01DX Z (ip), vehicle: carboxymethylcellulose (CMC) 98 % of control | dose: 9.0 mg/kg/injection, schedule: Q01DX Z (ip), vehicle: carboxymethylcellulose (CMC) 92 % of control | dose: 10.0 mg/kg/injection, schedule: Q01DX001 (ip), vehicle: saline 106 % of control | dose: 20.0 mg/kg/injection, schedule: Q01DX001 (ip), vehicle: saline 101 % of control | dose: 40.0 mg/kg/injection, schedule: Q01DX001 (ip), vehicle: saline 97 % of control | dose: 80.0 mg/kg/injection, schedule: Q01DX001 (ip), vehicle: saline 92 % of control
